# Measured values from patent publication US20240000872A1, “NOVEL BACTERIOPHAGE THAT LYSES ACINETOBACTER GENUS BACTERIA HAVING RESISTANCE TO ANTIBIOTICS” (priority 2020, published 2024).
# Test system: Acinetobacter baumannii strains
# Test: Antibiotic susceptibility test (CLSI disk diffusion test method, read per CLSI 2016); note: key: ‘S’ means susceptible; ‘I’ means intermediate; ‘R’ means resistant
# Type: cell-based
compound,measurement,setting,value
"CN(C)c1ccc(O)c2c1C[C@H]1C[C@H]3[C@H](N(C)C)C(O)=C(C(N)=O)C(=O)[C@@]3(O)C(O)=C1C2=O [Minocycline, minocycline]",susceptibility category (S/I/R),host strain YMC16/01/R198,S
same,antibiotic susceptibility S/I/R,host strain YMC16/01/R353,S
same,susceptibility category (S/I/R),host strain YMC16/01/R353,S
same,antibiotic susceptibility S/I/R,host strain YMC16/01/R380,S
same,susceptibility category (S/I/R),host strain YMC16/01/R380,S
same,antibiotic susceptibility S/I/R,host strain YMC16/01/R397,S
same,susceptibility category (S/I/R),host strain YMC16/01/R397,S
same,antibiotic susceptibility S/I/R,host strain YMC16/01/R405,S
same,susceptibility category (S/I/R),host strain YMC16/01/R405,S
same,antibiotic susceptibility S/I/R,host strain YMC16/03/R4461,S
same,susceptibility category (S/I/R),host strain YMC16/03/R4461,S
same,antibiotic susceptibility S/I/R,host strain YMC16/05/R2210,S
same,susceptibility category (S/I/R),host strain YMC16/05/R2210,S
same,antibiotic susceptibility S/I/R,host strain YMC16/07/R2512,S
same,susceptibility category (S/I/R),host strain YMC16/07/R2512,S
same,antibiotic susceptibility S/I/R,host strain YMC16/09/R2471,S
same,susceptibility category (S/I/R),host strain YMC16/09/R2471,S
same,antibiotic susceptibility S/I/R,host strain YMC16/10/R2537,S
same,susceptibility category (S/I/R),host strain YMC16/10/R2537,S
same,antibiotic susceptibility S/I/R,host strain YMC16/12/B11422,S
same,susceptibility category (S/I/R),host strain YMC16/12/B11422,S
same,antibiotic susceptibility S/I/R,host strain YMC16/12/B11449,S
same,susceptibility category (S/I/R),host strain YMC16/12/B11449,S
same,antibiotic susceptibility S/I/R,host strain YMC16/12/B13325,S
same,susceptibility category (S/I/R),host strain YMC16/12/B13325,S
same,antibiotic susceptibility S/I/R,host strain YMC16/12/P503,R
same,susceptibility category (S/I/R),host strain YMC16/12/P503,R
same,antibiotic susceptibility S/I/R,host strain YMC16/12/R4637,R
same,susceptibility category (S/I/R),host strain YMC16/12/R4637,R
same,antibiotic susceptibility S/I/R,host strain YMC17/01/B8053,S
same,susceptibility category (S/I/R),host strain YMC17/01/B8053,S
same,antibiotic susceptibility S/I/R,host strain YMC17/01/B10087,S
same,susceptibility category (S/I/R),host strain YMC17/01/B10087,S
same,antibiotic susceptibility S/I/R,host strain YMC17/01/B12075,S
same,susceptibility category (S/I/R),host strain YMC17/01/B12075,S
same,antibiotic susceptibility S/I/R,host strain YMC17/01/B13454,S
same,susceptibility category (S/I/R),host strain YMC17/01/B13454,S
same,antibiotic susceptibility S/I/R,host strain YMC17/01/P518,S
same,susceptibility category (S/I/R),host strain YMC17/01/P518,S
same,antibiotic susceptibility S/I/R,host strain YMC17/01/R2812,R
same,susceptibility category (S/I/R),host strain YMC17/01/R2812,R
same,susceptibility category (S/I/R),host strain YMC17/02/B14,I
same,susceptibility category (S/I/R),host strain YMC17/02/B87,I
same,antibiotic susceptibility S/I/R,host strain YMC17/02/B721,S
same,susceptibility category (S/I/R),host strain YMC17/02/B721,S
same,antibiotic susceptibility S/I/R,host strain YMC17/02/B4039,S
same,susceptibility category (S/I/R),host strain YMC17/02/B4039,S
same,antibiotic susceptibility S/I/R,host strain YMC17/02/B4520,S
same,susceptibility category (S/I/R),host strain YMC17/02/B4520,S
same,antibiotic susceptibility S/I/R,host strain YMC17/02/B4864,S
same,susceptibility category (S/I/R),host strain YMC17/02/B4864,S
same,antibiotic susceptibility S/I/R,host strain YMC17/02/B8414,S
same,susceptibility category (S/I/R),host strain YMC17/02/B8414,S
same,antibiotic susceptibility S/I/R,host strain YMC17/02/P523,S
same,susceptibility category (S/I/R),host strain YMC17/02/P523,S
same,antibiotic susceptibility S/I/R,host strain YMC17/02/R541,R
same,susceptibility category (S/I/R),host strain YMC17/02/R541,R
same,antibiotic susceptibility S/I/R,host strain YMC17/02/R2392,S
same,susceptibility category (S/I/R),host strain YMC17/02/R2392,S
same,antibiotic susceptibility S/I/R,host strain YMC17/03/B4730,S
same,susceptibility category (S/I/R),host strain YMC17/03/B4730,S
same,susceptibility category (S/I/R),host strain YMC17/03/B5000,I
same,antibiotic susceptibility S/I/R,host strain YMC17/03/P971,S
same,susceptibility category (S/I/R),host strain YMC17/03/P971,S
same,antibiotic susceptibility S/I/R,host strain YMC17/03/R348,S
same,susceptibility category (S/I/R),host strain YMC17/03/R348,S
same,antibiotic susceptibility S/I/R,host strain YMC17/03/R585,R
same,susceptibility category (S/I/R),host strain YMC17/03/R585,R
same,antibiotic susceptibility S/I/R,host strain YMC17/03/R1888,S
same,susceptibility category (S/I/R),host strain YMC17/03/R1888,S
same,antibiotic susceptibility S/I/R,host strain YMC17/03/R3279,S
same,susceptibility category (S/I/R),host strain YMC17/03/R3279,S
same,antibiotic susceptibility S/I/R,host strain YMC17/03/R4077,S
same,susceptibility category (S/I/R),host strain YMC17/03/R4077,S
same,antibiotic susceptibility S/I/R,host strain YMC17/03/R4607,R
same,susceptibility category (S/I/R),host strain YMC17/03/R4607,R
same,antibiotic susceptibility S/I/R,host strain YMC17/04/R488,S
same,susceptibility category (S/I/R),host strain YMC17/04/R488,S
same,antibiotic susceptibility S/I/R,host strain YMC17/04/R640,S
same,susceptibility category (S/I/R),host strain YMC17/04/R640,S
same,antibiotic susceptibility S/I/R,host strain YMC/17/05/R1095,S
same,susceptibility category (S/I/R),host strain YMC/17/05/R1095,S
